Test: xn = mol fraction of the nth substance listed
Details: 313.15 K, Fluid (supercritical or subcritical phases), Bellows volumetry

O=C=O [carbon dioxide] + CCO
Details | mass density [kg/m3]
1000 kPa, x1 = 1 | 17.9
2000 kPa, x1 = 0.1 | 787.2
2000 kPa, x1 = 1 | 37.1
3000 kPa, x1 = 0.1 | 788.2
3000 kPa, x1 = 1 | 58.7
4000 kPa, x1 = 0.1 | 789.2
4000 kPa, x1 = 0.2 | 799.4
4000 kPa, x1 = 1 | 83.5
5000 kPa, x1 = 0.1 | 790.2
5000 kPa, x1 = 0.2 | 800.6
5000 kPa, x1 = 1 | 112.7
6000 kPa, x1 = 0.1 | 791.1
6000 kPa, x1 = 0.2 | 801.9
6000 kPa, x1 = 0.3 | 811.2
6000 kPa, x1 = 0.4 | 816.6
6000 kPa, x1 = 1 | 148.8
7000 kPa, x1 = 0.1 | 792.1
7000 kPa, x1 = 0.2 | 803.1
7000 kPa, x1 = 0.3 | 812.7
7000 kPa, x1 = 0.4 | 818.7
7000 kPa, x1 = 0.5 | 821.1
7000 kPa, x1 = 1 | 197.3
8000 kPa, x1 = 0.1 | 793.1
8000 kPa, x1 = 0.2 | 804.2
8000 kPa, x1 = 0.3 | 814.3
8000 kPa, x1 = 0.4 | 820.8
8000 kPa, x1 = 0.5 | 824
8000 kPa, x1 = 0.6 | 818.8
8000 kPa, x1 = 0.7 | 804.5
8000 kPa, x1 = 0.8 | 771.1
8000 kPa, x1 = 1 | 276.7
9000 kPa, x1 = 0.1 | 794
9000 kPa, x1 = 0.2 | 805.3
9000 kPa, x1 = 0.3 | 815.7
9000 kPa, x1 = 0.4 | 822.8
9000 kPa, x1 = 0.5 | 826.8
9000 kPa, x1 = 0.6 | 823
9000 kPa, x1 = 0.7 | 811.5
9000 kPa, x1 = 0.8 | 784.8
9000 kPa, x1 = 0.899 | 729.1
9000 kPa, x1 = 0.95 | 667
9000 kPa, x1 = 1 | 483.4
10000 kPa, x1 = 0.1 | 795
10000 kPa, x1 = 0.2 | 806.6
10000 kPa, x1 = 0.3 | 817.2
10000 kPa, x1 = 0.4 | 824.7
10000 kPa, x1 = 0.5 | 829.4
10000 kPa, x1 = 0.6 | 827
10000 kPa, x1 = 0.7 | 817.8
10000 kPa, x1 = 0.8 | 795.8
10000 kPa, x1 = 0.899 | 752.3
10000 kPa, x1 = 0.95 | 709.8
10000 kPa, x1 = 1 | 627.4

CCO [ethanol] + O=C=O
x2 = 0
Details | mass density [kg/m3]
1000 kPa | 773.1
2000 kPa | 773.9
3000 kPa | 774.8
4000 kPa | 775.5
5000 kPa | 776.4
6000 kPa | 777.2
7000 kPa | 778
8000 kPa | 778.8
9000 kPa | 779.6
10000 kPa | 780.4
